# Measurements reported in PubChem BioAssay (NCI).
#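 How tested: cells in 96-well plates exposed to compound for 48 hours at five concentrations. GI50 is the concentration that inhibits growth by half. Definition used: TGI = concentration required for complete inhibition of growth.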
# What was measured:
# Test in all cases: NCI anticancer screen, dose series, 48 h
# [1] = tested on: MCF7 breast
# [2] = tested on: NCI/ADR-RES ovarian
# [3] = tested on: PC-3 prostate
# [4] = tested on: SF-539 CNS
# [5] = tested on: 786-0 renal
# [6] = tested on: SNB-75 CNS
# [7] = tested on: RPMI-8226 leukemia
# [8] = tested on: HL-60(TB) leukemia
# [9] = tested on: SK-MEL-2 melanoma
# [10] = tested on: MDA-MB-435
Compound,GI50 [1],TGI [1],GI50 [2],TGI [2],GI50 [3],TGI [3],GI50 [4],TGI [4],GI50 [5],TGI [5],GI50 [6],TGI [6],GI50 [7],TGI [7],GI50 [8],TGI [8],TGI [9],GI50 [9],GI50 [10],TGI [10]
COc1cc(C2C(C(=O)OCc3ccccc3)=C(C)NC(C)=C2C(=O)OCc2ccccc2)cc(OC)c1OC,2.66 µM,> 100 µM,3.06 µM,> 100 µM,1.48 µM,> 100 µM,3.99 µM,> 100 µM,1.46 µM,> 100 µM,4.69 µM,> 100 µM,2.09 µM,> 100 µM,,,,,,
COc1ccc2c([nH]c3cc(O)c(C)cc32)c1CC=C(C)C,,,,,,,8.01 µM,> 25 µM,4.4 µM,8.61 µM,,,,> 25 µM,7.94 µM,> 25 µM,> 25 µM,,,
N#CC(C(=O)C(=O)Nc1ccc(Cl)c(Cl)c1)c1ccc(Cl)cc1 (configuration not stated),,,,,,,,> 100 µM,,> 100 µM,,> 100 µM,,> 100 µM,,> 100 µM,> 100 µM,,,
CCOC(=O)/C(=C/c1ccc(Cl)cc1)N(CC)CC,,,,,,,,> 100 µM,,> 100 µM,,> 100 µM,,> 100 µM,,> 100 µM,> 100 µM,,,
O=c1nc(-c2ccccc2)scc1-c1ccccc1,,,,,,,,> 100 µM,,> 100 µM,,> 100 µM,,> 100 µM,,> 100 µM,> 100 µM,,,
CCC[CH2][Ge]([CH2]CCC)([CH2]CCC)[O]C(=O)C(OC(C)=O)c1ccccc1 (configuration not stated),,,,,,,7.63 µM,22.3 µM,6.34 µM,22.8 µM,0.973 µM,25.2 µM,0.297 µM,4.82 µM,0.314 µM,2.09 µM,19.5 µM,3.17 µM,,
Cc1cn2c(/C=N/N=C(N)N)c(-c3cc(Cl)sc3Cl)nc2s1,0.777 µM,2.04 µM,5.57 µM,13.3 µM,0.8 µM,1.48 µM,,,0.887 µM,1.83 µM,,,0.792 µM,1.73 µM,,,> 50 µM,1.98 µM,,
CC1=C2[C@@H](c3ccccc3)C3C=CC2(c2ccccc23)N(C(=O)Nc2cccc3ccccc23)C1=O (some centres not stated),,,,,,,,> 100 µM,,> 100 µM,,,,> 100 µM,,> 100 µM,,,,
O=C1C(Cl)=C(Nc2cccc(O)c2)C(=O)N1c1ccc(Cl)cc1Cl,19.8 µM,63.3 µM,32.2 µM,> 100 µM,13.9 µM,38.2 µM,,,32.8 µM,> 100 µM,,,7.55 µM,30.7 µM,,,72.5 µM,35 µM,30.7 µM,> 100 µM
Cc1ccc(C(O)/C(=N/N)c2nc3ccc([N+](=O)[O-])cc3[nH]c2=O)cc1 (configuration not stated),,,,,,,,,,> 100 µM,,> 100 µM,,> 100 µM,,> 100 µM,> 100 µM,,,
CCc1cccc(CC)c1NC(=O)c1ccn2c1CCc1cnc(Nc3ccc(N4CCN(C)CC4)cc3OC)nc1-2,1.12 µM,7.55 µM,1.33 µM,> 100 µM,2.5 µM,16.2 µM,1.1 µM,3.19 µM,1.66 µM,3.84 µM,1.87 µM,7.47 µM,1.92 µM,6.58 µM,,,,,2.51 µM,11.7 µM
C[CH2][Sn]([Cl])([CH2]C)[CH2]C,,,,,,,1.01 µM,2.91 µM,1.01 µM,3.63 µM,0.255 µM,0.549 µM,0.399 µM,9.17 µM,,,4.48 µM,0.606 µM,,
C[C@]12CC/C(=N\OC(=O)Nc3ccccc3)C=C1CC[C@@H]1C2CC[C@@]2(C)C1CC[C@@H]2OC(=O)Nc1ccccc1 (some centres not stated),,,,,,,,> 100 µM,,> 100 µM,,> 100 µM,,> 100 µM,,> 100 µM,> 100 µM,,,
CCCN(CCC)c1ccc(/C=N/NC(=O)c2cccnc2)cc1,20.2 µM,> 100 µM,18 µM,> 100 µM,29.5 µM,> 100 µM,18.8 µM,61.4 µM,32.5 µM,94.8 µM,22 µM,68.1 µM,80.5 µM,> 100 µM,22.6 µM,63.7 µM,,,3.63 µM,> 100 µM
N#Cc1nc(Nc2ccc(Cl)cc2)sc1N,,,,,,,,9.46 µM,,33.7 µM,,> 71.1 µM,,> 65.6 µM,,> 76.7 µM,47.3 µM,,,
COc1cccc(N2C(=O)[C@H]3[C@H]4CC(C(C)(C)C)CC[C@H]4c4c([nH]c5ccccc45)[C@H]3C2=O)c1 (some centres not stated),,,,,,,,42.1 µM,,30.1 µM,,30.1 µM,,35 µM,,> 100 µM,40.3 µM,,,
C/C=C/C=C\C(=O)C1c2cccc(O)c2C(=O)c2c(O)cc(C)cc21 (configuration not stated),,,,,,,,1.52 µM,,3.93 µM,,2.74 µM,,7.26 µM,,7.04 µM,2.2 µM,,,
CO[C@]12CCC(=O)N1C=Cc1c2[nH]c2ccccc12,,,,,,,,> 100 µM,,> 100 µM,,> 100 µM,,> 100 µM,,> 100 µM,,,,
COC(=O)C1=C(C)N(NC(=O)c2cccc(Cl)c2)C(C)(O)C12CCOC2=O (configuration not stated),,,,,,,,> 100 µM,,> 100 µM,,> 100 µM,,> 100 µM,,,> 100 µM,,,
CCOC1=C2C(C)(CCC3[C@@]4(C)C=CC(=O)C(C)(C)C4CC(O)[C@@]23C)C(c2ccoc2)C1=O (some centres not stated),,,,,,,,41.7 µM,,39.8 µM,,> 100 µM,,49.8 µM,,36.3 µM,43.4 µM,,,
CS(=O)(=O)N(CC(=O)O)Cc1ccccc1,,> 100 µM,,> 100 µM,,> 100 µM,,> 100 µM,,> 100 µM,,> 100 µM,,> 100 µM,,,> 100 µM,,,> 100 µM
O=[N+]([O-])c1cc([N+](=O)[O-])c(C(Cl)C(Cl)c2ccccc2)cc1C(Cl)C(Cl)c1ccccc1 (configuration not stated),,,,,,,,3.33 µM,,3.12 µM,,5.17 µM,,8.38 µM,,> 100 µM,3.86 µM,,,
NC(=O)OCC(COc1ccc(Cl)cc1)OC(=O)c1cc([N+](=O)[O-])cc([N+](=O)[O-])c1 (configuration not stated),,,,,,,,> 100 µM,,> 100 µM,,> 100 µM,,> 100 µM,,> 100 µM,> 100 µM,,,
